Measurements as given in patent US9365540B2, “Benzimidazole derivatives as MCH receptor antagonists” (Takeda Pharmaceutical Company Limited, priority 2012, dated 2016).
Counter-ions that a name gives are not always drawn. Like-named read-outs stand apart in the source and are kept apart here.

Tests used:
[1] = target: T1, human MCHR1 (Homo sapiens, UniProt Q99705); test: MCH receptor 1 antagonistic activity, Ca2+ mobilization assay; type: cell-based; settings: for inhibition at 0.1 µM: CHO, read-out: Inhibitory rate % (0.1 μM); for Inhibitory rate % (0.1 μM): hydrochloride
T1 construct: expressed in transfected cells; host or cells: CHO dhfr- cells, clone #4
T1 sequence (Q99705 whole entry): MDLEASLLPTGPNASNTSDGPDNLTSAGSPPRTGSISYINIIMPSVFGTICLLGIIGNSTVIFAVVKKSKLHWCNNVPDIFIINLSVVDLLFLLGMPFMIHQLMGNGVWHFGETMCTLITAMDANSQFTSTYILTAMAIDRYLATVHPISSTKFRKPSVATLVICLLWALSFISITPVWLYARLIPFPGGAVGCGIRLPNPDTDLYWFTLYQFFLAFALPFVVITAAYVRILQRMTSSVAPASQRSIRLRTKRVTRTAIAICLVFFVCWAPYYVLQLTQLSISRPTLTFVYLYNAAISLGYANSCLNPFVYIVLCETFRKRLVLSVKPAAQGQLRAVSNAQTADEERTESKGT
Experimental: Measurement of MCH Receptor 1 Antagonistic Activity of Test Compound Using Ca^2+ Mobilization Assay Using an expression vector plasmid introduced with human MCHR1 gene for expression in animal cells, human MCHR1 gene was introduced into CHO cells (CHO dhfr^−) by Lipofectamine LTX (Invitrogen). The cells were cultured in selection MEMα medium [445 mL of MEMα medium without nucleic acid and added with 5 mL of Penicillin-Streptomycin (Invitrogen) and 50 mL of dialyzed fetal bovine serum]. Colony 24 clones grown in the selection medium, which were human MCHR1 gene-expressing CHO cell candidates, were selected. […] In the following test, this human MCHR1-expressing CHO cell (clone #4) was used. An integrated dispensing function fluorometer (CellLux, PerkinElmer) was used for Ca^2+ mobilization assay. […] The medium was removed, and the cells were washed with phosphate buffered saline (PBS). […] The plate was set on a plate reader. […] The inhibition rates (%) of test compounds (0.1 μM) as antagonist activity measured using human MCHR1-expressing CHO cells (clone #4) are shown in the following Table 3.

[2] = target: T2, human MCH receptor 1 (MCHR1) (Homo sapiens, UniProt Q99705); test: human MCH receptor 1 (MCHR1) competitive binding assay with [125I]-MCH(4-19); settings: test compound 0.1 μM, human MCHR1-expressing CHO cell membrane fraction; for inhibition at 0.1 µM: read-out: Binding inhibition rate % (0.1 μM)
T2 construct: expressed in transfected cells; host or cells: CHO cell clone 57 (membrane fraction)
T2 sequence (Q99705 whole entry): as above
Procedure, shortened: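 Membranes from CHO cells expressing human MCHR1 incubated with [125I]-MCH(4-19) and test compound in 20 mM Tris-HCl pH 7.5/5 mM EDTA with protease inhibitors, 1 hr at room temperature. Bound radioactivity collected on PEI-treated GF/C filters; % inhibition at 0.1 μM compound, nonspecific binding set with cold MCH(1-19).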

[3] = test compound 0.1 μM, human MCHR1-expressing CHO cells (clone #4), ligand MCH(4-19) 2 nM

| inhibition at 0.1 µM [1, 3] | inhibition at 0.1 µM [2] | Inhibitory rate % (0.1 μM) [1, 3] | Binding inhibition rate % (0.1 μM) ([2]; hydrochloride, 0.1 µM) | Compound | inhibition at 0.1 µM [1] |
| --- | --- | --- | --- | --- | --- |
| 92% | 74% |  |  | Cn1c(C2CC2)nc2ccc(-n3ccc(OCc4cc(F)c(F)s4)cc3=O)cc21 [Example 239, 1-(2-Cyclopropyl-1-methyl-1H-benzimidazol-6-yl)-4-((4,5-difluoro-2-thienyl)methoxy)pyridin-2(1H)-one] |  |
| 69% | 64% |  |  | Cn1c(C2CC2)nc2ccc(-n3ccc([C@@H]4C[C@H]4c4ccc(Cl)cc4)cc3=O)cc21 (racemic) [Example 253, 4-((1RS,2RS)-2-(4-chlorophenyl)cyclopropyl)-1-(2-cyclopropyl-1-methyl-1H-benzimidazol-6-yl)pyridin-2(1H)-one] |  |
| 100% | 70% |  |  | Cn1c(C2CC2)nc2ccc(-n3ccc(OCc4ccc(Br)o4)cc3=O)cc21 [Example 259, 4-((5-Bromo-2-furyl)methoxy)-1-(2-cyclopropyl-1-methyl-1H-benzimidazol-6-yl)pyridin-2(1H)-one] |  |
| 96% | 76% |  |  | CCc1nc2ccc(-n3ccc(OCc4cc(Cl)cs4)cc3=O)cc2n1C [Example 236, 4-((4-Chlorothiophen-2-yl)methoxy)-1-(2-ethyl-1-methyl-1H-benzimidazol-6-yl)pyridin-2(1H)-one] |  |
| 76% | 56% |  |  | Cn1c(C2CC2)nc2ccc(-n3ccc(OCc4ccc(C(F)(F)F)o4)cc3=O)cc21 [Example 241, 1-(2-Cyclopropyl-1-methyl-1H-benzimidazol-6-yl)-4-((5-(trifluoromethyl)-2-furyl)methoxy)pyridin-2(1H)-one] |  |
| 100% | 57% |  |  | CCc1nc2ccc(-n3ccc(OCc4nc(C(F)(F)F)cs4)cc3=O)cc2n1C [Example 261, 1-(2-Ethyl-1-methyl-1H-benzimidazol-6-yl)-4-((4-(trifluoromethyl)-1,3-thiazol-2-yl)methoxy)pyridin-2(1H)-one] |  |
| 97% | 61% |  |  | CCc1nc2ccc(-n3ccc(OCc4csc(C(F)(F)F)c4)cc3=O)cc2n1C [Example 265, 1-(2-Ethyl-1-methyl-1H-benzimidazol-6-yl)-4-((5-(trifluoromethyl)-3-thienyl)methoxy)pyridin-2(1H)-one] |  |
|  | 78% | 67% |  | Cn1c(C2CC2C#N)nc2ccc(-n3ccc(OCc4ccc(Cl)cc4)cc3=O)cc21 (stereo not drawn) [Example 237, (1R*,2S*)-2-(6-(4-((4-Chlorobenzyl)oxy)-2-oxopyridin-1(2H)-yl)-1-methyl-1H-benzimidazol-2-yl)cyclopropanecarbonitrile hydrochloride] |  |
|  |  | 42% | 65% | Cn1c(C2CC2C#N)nc2ccc(-n3ccc(OCc4ccc(Cl)cc4)cc3=O)cc21 (stereo not drawn) [Example 238, (1R*,2S*)-2-(6-(4-((4-Chlorobenzyl)oxy)-2-oxopyridin-1(2H)-yl)-1-methyl-1H-benzimidazol-2-yl)cyclopropanecarbonitrile hydrochloride] |  |
| 72% | 38% |  |  | Cn1c(C2CC2)nc2ccc(-n3ccc(COc4ccc(F)cc4)cc3=O)cc21 [Example 243, 1-(2-Cyclopropyl-1-methyl-1H-benzimidazol-6-yl)-4-((4-fluorophenoxy)methyl)pyridin-2(1H)-one] |  |
| 93% | 69% |  |  | CCc1nc2ccc(-n3ccc(OCc4ccsc4)cc3=O)cc2n1C [Example 235, 1-(2-Ethyl-1-methyl-1H-benzimidazol-6-yl)-4-(3-thienylmethoxy)pyridin-2(1H)-one] |  |
| 100% | 92% |  |  | Cn1c(C2CC2)nc2ccc(-n3ccc(OCc4csc(Br)c4)cc3=O)cc21 [Example 250, 4-((5-Bromo-3-thienyl)methoxy)-1-(2-cyclopropyl-1-methyl-1H-benzimidazol-6-yl)pyridin-2(1H)-one] |  |
| 58% | 59% |  |  | Cn1c(C2CC2)nc2ccc(-n3ccc(COc4ccc(Cl)cc4)cc3=O)cc21 [Example 245, 4-((4-Chlorophenoxy)methyl)-1-(2-cyclopropyl-1-methyl-1H-benzimidazol-6-yl)pyridin-2(1H)-one] |  |

Second part, the compound before the results:

| Compound | inhibition at 0.1 µM [1, 3] | inhibition at 0.1 µM [2] | Inhibitory rate % (0.1 μM) [1, 3] | Binding inhibition rate % (0.1 μM) ([2]; hydrochloride, 0.1 µM) | inhibition at 0.1 µM [1] |
| --- | --- | --- | --- | --- | --- |
| Cn1c(C2CC2)nc2ccc(-n3ccc(OCc4ccc(Cl)o4)cc3=O)cc21 [Example 202, 4-((5-Chloro-2-furyl)methoxy)-1-(2-cyclopropyl-1-methyl-1H-benzimidazol-6-yl)pyridin-2(1H)-one] | 104% | 67% |  |  |  |
| Cc1c(C2CC2)nc2ccc(-n3ccc(NCc4ccc(Cl)cc4)cc3=O)cn12 [Example 186, 4-((4-Chlorobenzyl)amino)-1-(2-cyclopropyl-3-methylimidazo[1,2-a]pyridin-6-yl)pyridin-2(1H)-one] | 74% | 25% |  |  |  |
| Cc1c(C2CC2)nc2ccc(-n3ccc(OCc4cccc(F)c4)cc3=O)cn12 [Example 130, 1-(2-Cyclopropyl-3-methylimidazo[1,2-a]pyridin-6-yl)-4-((3-fluorobenzyl)oxy)pyridin-2(1H)-one] | 99% | 79% |  |  |  |
| Cc1c(C2CC2)nc2ccc(-n3ccc(OCc4ccccn4)cc3=O)cn12 [Example 263, 1-(2-Cyclopropyl-3-methylimidazo[1,2-a]pyridin-6-yl)-4-(pyridin-2-ylmethoxy)pyridin-2(1H)-one hydrochloride] |  | 30% |  |  | 52% |
| Cn1c([C@H]2C[C@H]2C#N)nc2ccc(-n3ccc(OCc4ccc(Cl)cc4)cc3=O)cc21 (racemic) [Example 148, (1RS,2SR)-2-(6-(4-((4-Chlorobenzyl)oxy)-2-oxopyridin-1(2H)-yl)-1-methyl-1H-benzimidazol-2-yl)cyclopropanecarbonitrile] | 94% | 69% |  |  |  |
| Cn1c(C2CC2)nc2ccc(-n3ccc(OCc4ccc(F)s4)cc3=O)cc21 [Example 157, 1-(2-Cyclopropyl-1-methyl-1H-benzimidazol-6-yl)-4-((5-fluorothiophen-2-yl)methoxy)pyridin-2(1H)-one] | 95% | 71% |  |  |  |
| Cc1ncoc1-c1nc2ccc(-n3ccc(OCc4ccc(F)cc4)cc3=O)cc2n1C [Example 89, 4-((4-Fluorobenzyl)oxy)-1-(1-methyl-2-(4-methyl-1,3-oxazol-5-yl)-1H-benzimidazol-6-yl)pyridin-2(1H)-one] | 46% | 73% |  |  |  |
| Cc1c(C2CC2)nc2ccc(-n3ccc(OCc4csc(Cl)c4)cc3=O)cn12 [Example 164, 4-((5-Chlorothiophen-3-yl)methoxy)-1-(2-cyclopropyl-3-methylimidazo[1,2-a]pyridin-6-yl)pyridin-2(1H)-one] | 102% | 92% |  |  |  |
| CC1CC1c1nc2ccc(-n3ccc(OCc4ccc(F)cc4)cc3=O)cc2n1C (stereo not drawn) [Example 43, 4-((4-Fluorobenzyl)oxy)-1-(1-methyl-2-(2-methylcyclopropyl)-1H-benzimidazol-6-yl)pyridin-2(1H)-one] | 100% | 69% |  |  |  |
| Cn1c(C2CC2)nc2ccc(-n3ccc(OCc4cc(Cl)cs4)cc3=O)cc21 [Example 228, 4-((4-Chlorothiophen-2-yl)methoxy)-1-(2-cyclopropyl-1-methyl-1H-benzimidazol-6-yl)pyridin-2(1H)-one] | 103% | 89% |  |  |  |
| Cn1c(-c2cnco2)nc2ccc(-n3ccc(OCc4ccc(F)cc4)cc3=O)cc21 [Example 69, 4-((4-Fluorobenzyl)oxy)-1-(1-methyl-2-(1,3-oxazol-5-yl)-1H-benzimidazol-6-yl)pyridin-2(1H)-one] | 58% | 65% |  |  |  |
| Cc1c(C2CC2)nc2ccc(-n3ccc(NCc4ccc(Cl)s4)cc3=O)cn12 [Example 181, 4-(((5-Chloro-2-thienyl)methyl)amino)-1-(2-cyclopropyl-3-methylimidazo[1,2-a]pyridin-6-yl)pyridin-2(1H)-one] | 21% | 57% |  |  |  |
| Cc1c(C2CC2)nc2ccc(-n3ccc(OCc4csc(Br)n4)cc3=O)cn12 [Example 189, 4-((2-Bromo-1,3-thiazol-4-yl)methoxy)-1-(2-cyclopropyl-3-methylimidazo[1,2-a]pyridin-6-yl)pyridin-2(1H)-one] | 100% | 86% |  |  |  |
| Cc1c(C2CC2)nc2ccc(-n3ccc(OCc4nc(C(F)(F)F)cs4)cc3=O)cn12 [Example 193, 1-(2-Cyclopropyl-3-methylimidazo[1,2-a]pyridin-6-yl)-4-((4-(trifluoromethyl)-1,3-thiazol-2-yl)methoxy)pyridin-2(1H)-one] | 99% | 89% |  |  |  |
